Experiments:
[1] = system: expression of activation markers CD69 and CD86; assay: In vivo potency: BCR stimulated with IgM, CD69 and CD86 expression by flow cytometry; settings: mice gavaged, 3 h post-dose
Description: Mice were gavaged at increasing drug concentration and sacrificed at one time point (3 h post-dose). BCR is stimulated with IgM and the expression of activation markers CD69 and CD86 are monitored by flow cytometry to determine EC50's.

[2] = system: CLL; assay: Clinical study of Formula (XVIII) in CLL; type: in vivo
[3] = target: BTK (Homo sapiens, UniProt Q06187); assay: BTK target occupancy in relapsed/refractory CLL patients; type: in vivo; settings: at lower dosage versus ibrutinib
Sequence of BTK (Homo sapiens, UniProt Q06187) (Q06187 whole entry): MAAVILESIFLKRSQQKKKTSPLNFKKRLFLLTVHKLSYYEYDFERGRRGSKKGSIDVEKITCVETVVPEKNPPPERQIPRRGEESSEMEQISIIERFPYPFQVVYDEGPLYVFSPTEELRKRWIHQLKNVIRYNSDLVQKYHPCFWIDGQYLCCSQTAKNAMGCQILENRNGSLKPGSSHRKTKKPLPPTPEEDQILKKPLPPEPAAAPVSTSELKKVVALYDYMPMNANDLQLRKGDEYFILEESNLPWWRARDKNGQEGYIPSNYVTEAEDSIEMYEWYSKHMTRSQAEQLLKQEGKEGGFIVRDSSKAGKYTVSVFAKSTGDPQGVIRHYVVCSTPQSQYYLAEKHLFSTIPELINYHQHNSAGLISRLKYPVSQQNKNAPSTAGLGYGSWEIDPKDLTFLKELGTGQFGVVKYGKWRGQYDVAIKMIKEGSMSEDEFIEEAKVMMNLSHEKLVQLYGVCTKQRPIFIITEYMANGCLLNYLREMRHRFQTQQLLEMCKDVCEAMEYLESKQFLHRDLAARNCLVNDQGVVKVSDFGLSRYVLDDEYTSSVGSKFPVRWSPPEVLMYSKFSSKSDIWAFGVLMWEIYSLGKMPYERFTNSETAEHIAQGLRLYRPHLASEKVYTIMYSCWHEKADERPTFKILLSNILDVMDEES

[4] = system: ID8 ovarian cancer; assay: ID8 syngeneic orthotropic ovarian cancer model; type: in vivo, mice
[5] = system: KrasL2 NSCLC; assay: KrasL2 NSCLC model; settings: in vivo
[6] = system: T helper 17 (Th17) cells; assay: Effect on T helper 17 (Th17) cells; type: cell-based
[7] = Brain penetration study; settings: in vivo
[8] = system: ID8 ovarian cancer; assay: ID8 syngeneic orthotropic ovarian cancer murine model; type: in vivo, mice
From the text: Human ovarian cancer models, including the ID8 syngeneic orthotropic ovarian cancer model and other animal models, are described in Fong and Kakar, J. Ovarian Res. 2009, 2, 12; Greenaway, et al., Gynecol. Oncol. 2008, 108, 385-94; Urzua, et al., Tumour Biol. 2005, 26, 236-44; Janat-Amsbury, et al., Anticancer Res. 2006, 26, 3223-28; Janat-Amsbury, et al., Anticancer Res. 2006, 26, 2785-89. […] The results of the study are shown in FIG. 100, FIG. 101, FIG. 102, FIG. 103, FIG. 104, FIG. 105, FIG. 106, and FIG. 107.
Each cohort consisted of 12 mice. Every two weeks mice are injected with luciferin, and tumor growth was monitored using the Xenogen system (Caliper Life Sciences, PerkinElmer, Hopkinton, Mass., USA). Tumor size was measured by calculated flux.
The experiments were performed as described in Example 7.

[9] = system: B cell lymphoma; assay: Veterinary clinical trial in canine B cell lymphoma; type: in vivo, companion dogs
From the text: Canine B cell lymphoma exists as a pathological entity that is characterized by large anaplastic, centroblastic or immunoblastic lymphocytes with high proliferative grade, significant peripheral lymphadenopathy and an aggressive clinical course. While some dogs respond initially to prednisone, most canine lymphomas progress quickly and must be treated with combination therapies, including cyclophosphamide, vincristine, doxorubicin, and prednisone (CHOP), or other cytotoxic agents. In their histopathologic features, clinical course, and high relapse rate after initial treatment, canine B cell lymphomas resemble diffuse large B cell lymphoma (DLBCL) in humans. Thus, responses of canine B cell lymphomas to experimental treatments are considered to provide proof of concept for therapeutic candidates in DLBCL.
Enrollment has completed for both arms.
Intra-subject dose escalation was allowed. Six of the 11 dogs that initiated at 2.5 or 5 mg/kg once daily were escalated and completed the study with dosages of 10 mg/kg twice daily. Among all the dose cohorts, 8 dogs had shrinkage of target lesions >20%; the best tumor responses were between 45-49% reduction in the sum of target lesions in two dogs. […] CR were defined as disappearance of all evidence of disease per evaluator judgment, and absence of new lesions. Vali, et al., Vet. Comp. Oncol. 2010, 8, 28-37. […]

[10] = system: NK cells; assay: Antibody-stimulated NK cell degranulation (CD107a), flow cytometry; type: cell-based, human; settings: DHL-4 target cells
[11] = target: CYP3A4 (Homo sapiens, UniProt P08684); assay: In vitro CYP metabolism and CYP interaction studies; type: in vitro ADME
Sequence of CYP3A4 (P08684 whole entry): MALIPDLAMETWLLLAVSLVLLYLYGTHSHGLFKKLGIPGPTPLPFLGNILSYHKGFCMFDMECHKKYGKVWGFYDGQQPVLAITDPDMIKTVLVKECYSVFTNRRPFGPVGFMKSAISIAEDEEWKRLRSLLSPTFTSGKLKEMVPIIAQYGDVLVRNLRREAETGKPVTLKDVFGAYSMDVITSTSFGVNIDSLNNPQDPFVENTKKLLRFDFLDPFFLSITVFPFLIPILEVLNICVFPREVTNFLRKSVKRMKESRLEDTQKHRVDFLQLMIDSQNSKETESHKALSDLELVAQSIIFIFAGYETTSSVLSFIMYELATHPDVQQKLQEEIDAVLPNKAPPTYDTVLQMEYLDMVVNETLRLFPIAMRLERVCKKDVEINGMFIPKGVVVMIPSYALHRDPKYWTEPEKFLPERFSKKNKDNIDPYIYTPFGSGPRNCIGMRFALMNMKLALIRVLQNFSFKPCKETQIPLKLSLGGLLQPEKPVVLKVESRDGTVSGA

[12] = In vitro metabolism in hepatocytes with 14C-labeled drug; type: in vitro ADME, mouse, rat, dog, rabbit, monkey, and human
[13] = target: T1, BTK (Mus musculus, UniProt P35991); assay: Molecular probe assay of irreversible BTK occupancy in MDSCs; type: in vivo, tumor bearing PDA mice; settings: 15 mg/kg BID; Day 8 at 4 hours post dose (N=5)
T1 construct: MDSCs were purified from tumor bearing PDA mice; endogenous in cells; host or cells: granulocytic and monocytic MDSCs purified from tumour-bearing PDA mice
T1 sequence (P35991 whole entry): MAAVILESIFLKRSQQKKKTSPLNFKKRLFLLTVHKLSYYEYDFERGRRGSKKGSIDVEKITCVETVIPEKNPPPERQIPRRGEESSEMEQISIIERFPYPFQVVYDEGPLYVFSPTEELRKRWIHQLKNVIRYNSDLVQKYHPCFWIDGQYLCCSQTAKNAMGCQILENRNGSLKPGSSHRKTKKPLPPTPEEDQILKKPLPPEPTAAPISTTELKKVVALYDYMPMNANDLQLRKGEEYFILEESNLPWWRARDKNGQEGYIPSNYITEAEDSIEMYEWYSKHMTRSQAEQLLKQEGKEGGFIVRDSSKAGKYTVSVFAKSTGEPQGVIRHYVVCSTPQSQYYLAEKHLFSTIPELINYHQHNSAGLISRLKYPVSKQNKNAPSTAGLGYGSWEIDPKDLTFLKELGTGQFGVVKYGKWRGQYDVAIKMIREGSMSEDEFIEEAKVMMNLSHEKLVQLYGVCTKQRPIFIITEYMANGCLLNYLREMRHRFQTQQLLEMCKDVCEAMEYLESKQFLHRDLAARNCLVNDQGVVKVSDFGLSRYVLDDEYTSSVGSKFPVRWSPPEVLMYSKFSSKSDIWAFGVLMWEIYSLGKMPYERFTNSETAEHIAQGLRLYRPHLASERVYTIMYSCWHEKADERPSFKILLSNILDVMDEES
From the text: A molecular probe assay was used to calculate the percent irreversible occupancy of total BTK.

[14] = system: NK cells; assay: Whole blood NK cell degranulation/ADCC assay with obinutuzumab-opsonised MEC-1 cells; type: cell-based, human; settings: CD56+/CD107a+ NK cells; n=3 experiments
[15] = system: CD8^+ T cells; assay: Cytotoxic T cell (CTL) assay; type: cell-based; settings: 500 nM
Description: Without being bound by any theory, CD8^+ T cells have two primary effector functions: (1) produce large amounts of IFN-γ (which activates macrophages), and (2) cytolytic activity. […] The targets were B lymphoblasts from lipopolysaccharide (LPS) treated cultures. The assay was performed by incubating different ratios of effectors:targets for 4 hours.

[16] = system: relapsed/refractory CLL; settings: human, in vivo
[17] = Respiratory function study (GLP safety pharmacology); settings: doses through 300 mg/kg

CC#CC(=O)N1CCC[C@H]1c1nc(-c2ccc(C(=O)Nc3ccccn3)cc2)c2c(N)nccn12 [Formula (XVIII), (S)-4-(8-amino-3-(1-(but-2-ynoyl)pyrrolidin-2-yl)imidazo[1,5-a]pyrazin-1-yl)-N-(pyridin-2-yl)benzamide]
inhibition of expression of activation markers CD69 and CD86, compared with ibrutinib [1]: more potent at inhibiting expression of activation makers than ibrutinib
apoptosis ([2]; CLL patients treated): increased apoptosis
sum of the product of greatest diameters (SPD) ([2]; CLL patients, compared with ibrutinib): decreases more rapidly
absolute lymphocyte count (ALC) ([2]; CLL patients, relative to ibrutinib data of Byrd, et al.): much smaller relative increase and much faster decrease
CCL2 levels ([2]; patients treated): decrease in CCL2 levels
CXCL12 levels ([2]; patients treated): decrease in CXCL12 levels
BTK target occupancy [3]: improved BTK target occupancy
CD8+ T cells ([4]; mouse, in vivo): increase in CD8^+ T cells
immunosuppressive tumor associated Tregs ([4]; mouse, in vivo): significant reduction in immunosuppressive tumor associated Tregs
ID8 ovarian cancer growth ([4]; syngeneic murine model, versus vehicle): impairs ID8 ovarian cancer growth
B regulatory cells (Bregs) ([4]; tumor-bearing mice): significant reduction in B regulatory cells (Bregs)
total B cells ([4]; tumor-bearing mice): significant reduction in total B cells
immunosuppressive tumor associated lymphocytes ([4]; tumor-bearing mice, versus vehicle): significant reduction in immunosuppressive tumor associated lymphocytes
immunosuppressive tumor associated MDSCs [5]: significant reduction in immunosuppressive tumor associated MDSCs
immunosuppressive tumor associated TAMs [5]: significant reduction in immunosuppressive tumor associated TAMs
immunosuppressive tumor associated Tregs [5]: significant reduction in immunosuppressive tumor associated Tregs
effect on Th17 cells [6]: no adverse effect on T helper 17 (Th17) cells
brain penetration (blood-brain barrier) [7]: crosses the blood-brain barrier
cytolytic CD8^+ T cells ([8]; 15 mg/kg/BID oral): increase
immunosuppressive B cells in tumor-bearing mice ([8]; 15 mg/kg/BID oral): significant reduction
immunosuppressive tumor associated Tregs ([8]; 15 mg/kg/BID oral): significant reduction
ID8 ovarian cancer growth ([8]; Formula (XVIII) 15 mg/kg BID oral, antibody 150 μg): impairs ID8 ovarian cancer growth
complete responses (CR) ([9]; Arm 1: 21 dogs, Arm 2: 10 dogs): not observed
Median time to best response ([9]; dog, in vivo): 7 days
inhibition of rituximab-stimulated NK cell degranulation [10]: < 2%
CYP responsible for loss of parent drug [11]: metabolized by CYP3A4
drug-drug interaction potential via CYP enzymes [11]: very unlikely to cause clinical drug-drug interactions
metabolites found [12]: two mono-oxidized metabolites and a glutathione conjugate
unique human metabolite [12]: No unique human metabolite was identified
BTK occupancy in granulocytic and monocytic MDSC compartment [13]: Complete BTK occupancy
reduction of obinutuzumab-stimulated NK cell degranulation [14]: minimal effect
CD8^+ T cell function as % cytotoxicity [15]: no effect on CD8^+ T cell function
maximum tolerated dose (MTD) [16]: not reached
respiratory function [17]: no treatment-related adverse effects

— patent US20170239351A1, “Therapeutic Combinations of a BTK Inhibitor, a PI3K Inhibitor, a JAK-2 Inhibitor, a PD-1 Inhibitor, and/or a PD-L1 Inhibitor” (Acerta Pharma B.V., priority 2014, published 2017)
